Measurements from the kinase profiling compilation of Christmann-Franck et al. (2016).

Key:
Assay in all cases: KINOMEscan competition binding
AAK1 (human) = AAK1 (human) (UniProt Q2M2I8); conditions: compound 10.0 µM
[1] = tested on: ABL1 (human), P00519 [M351T]; conditions: compound 10.0 µM
BMPR1A (human) = BMPR1A (human) (UniProt P36894); conditions: compound 10.0 µM
[2] = tested on: BRAF (human), P15056 [V600E]; conditions: compound 10.0 µM
CAMKK2 (human) = CAMKK2 (human) (UniProt Q96RR4); conditions: compound 10.0 µM
CDKL3 (human) = CDKL3 (human) (UniProt Q8IVW4); conditions: compound 10.0 µM
CRK2 (P.falciparum) = CRK2 (P.falciparum) (UniProt P61075); conditions: compound 10.0 µM
CSNK2A1 (human) = CSNK2A1 (human) (UniProt P68400); conditions: compound 10.0 µM
DDR1 (human) = DDR1 (human) (UniProt Q08345); conditions: compound 10.0 µM
DDR2 (human) = DDR2 (human) (UniProt Q16832); conditions: compound 10.0 µM
DYRK2 (human) = DYRK2 (human) (UniProt Q92630); conditions: compound 10.0 µM
[3] = tested on: EGFR (human), P00533 [A750P; 747-749 del]; conditions: compound 10.0 µM
EPHA8 (human) = EPHA8 (human) (UniProt P29322); conditions: compound 10.0 µM
EPHB4 (human) = EPHB4 (human) (UniProt P54760); conditions: compound 10.0 µM
ERN1 (human) = ERN1 (human) (UniProt O75460); conditions: compound 10.0 µM
[4] = tested on: FGFR3 (human), P22607 [G697C]; conditions: compound 10.0 µM
FLT3 (human) = FLT3 (human) (UniProt P36888); conditions: compound 10.0 µM
GAK (human) = GAK (human) (UniProt O14976); conditions: compound 10.0 µM
GRK1 (human) = GRK1 (human) (UniProt Q15835); conditions: compound 10.0 µM
GSK3B (human) = GSK3B (human) (UniProt P49841); conditions: compound 10.0 µM
HIPK1 (human) = HIPK1 (human) (UniProt Q86Z02); conditions: compound 10.0 µM
HIPK2 (human) = HIPK2 (human) (UniProt Q9H2X6); conditions: compound 10.0 µM
IRAK1 (human) = IRAK1 (human) (UniProt P51617); conditions: compound 10.0 µM
MAP2K1 (human) = MAP2K1 (human) (UniProt Q02750); conditions: compound 10.0 µM
MAPK7 (human) = MAPK7 (human) (UniProt Q13164); conditions: compound 10.0 µM
MAPKAPK5 (human) = MAPKAPK5 (human) (UniProt Q8IW41); conditions: compound 10.0 µM
MARK2 (human) = MARK2 (human) (UniProt Q7KZI7); conditions: compound 10.0 µM
NEK4 (human) = NEK4 (human) (UniProt P51957); conditions: compound 10.0 µM
NEK5 (human) = NEK5 (human) (UniProt Q6P3R8); conditions: compound 10.0 µM
PAK6 (human) = PAK6 (human) (UniProt Q9NQU5); conditions: compound 10.0 µM
PDGFRB (human) = PDGFRB (human) (UniProt P09619); conditions: compound 10.0 µM
PHKG1 (human) = PHKG1 (human) (UniProt Q16816); conditions: compound 10.0 µM
[5] = tested on: PIK3CA (human), P42336 [E542K]; conditions: compound 10.0 µM
[6] = tested on: PIK3CA (human), P42336 [M1043I]; conditions: compound 10.0 µM
PIM1 (human) = PIM1 (human) (UniProt P11309); conditions: compound 10.0 µM
PIM3 (human) = PIM3 (human) (UniProt Q86V86); conditions: compound 10.0 µM
PIP5K1A (human) = PIP5K1A (human) (UniProt Q99755); conditions: compound 10.0 µM
PRKCQ (human) = PRKCQ (human) (UniProt Q04759); conditions: compound 10.0 µM
TEK (human) = TEK (human) (UniProt Q02763); conditions: compound 10.0 µM
TLK2 (human) = TLK2 (human) (UniProt Q86UE8); conditions: compound 10.0 µM
TNK1 (human) = TNK1 (human) (UniProt Q13470)
TNK1 (human), sequence (Q13470 whole entry, looked up): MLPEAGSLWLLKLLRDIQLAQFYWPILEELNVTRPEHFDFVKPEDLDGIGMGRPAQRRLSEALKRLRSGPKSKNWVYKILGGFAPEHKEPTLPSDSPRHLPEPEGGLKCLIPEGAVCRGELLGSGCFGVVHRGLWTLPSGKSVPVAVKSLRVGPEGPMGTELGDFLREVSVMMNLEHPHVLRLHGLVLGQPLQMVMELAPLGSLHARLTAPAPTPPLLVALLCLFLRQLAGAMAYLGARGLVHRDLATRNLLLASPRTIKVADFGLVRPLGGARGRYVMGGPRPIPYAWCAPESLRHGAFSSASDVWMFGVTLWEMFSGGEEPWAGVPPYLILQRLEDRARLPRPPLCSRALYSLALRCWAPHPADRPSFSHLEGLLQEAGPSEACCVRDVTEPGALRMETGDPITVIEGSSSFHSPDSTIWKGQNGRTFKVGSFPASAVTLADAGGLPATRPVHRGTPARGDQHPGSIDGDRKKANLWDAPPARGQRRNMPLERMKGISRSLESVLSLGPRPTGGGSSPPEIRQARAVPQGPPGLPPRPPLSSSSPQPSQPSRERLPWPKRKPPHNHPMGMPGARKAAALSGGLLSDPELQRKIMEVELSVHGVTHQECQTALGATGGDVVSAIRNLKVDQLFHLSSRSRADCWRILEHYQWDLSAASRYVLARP

GRK1 (human), sequence (Q15835 whole entry, looked up): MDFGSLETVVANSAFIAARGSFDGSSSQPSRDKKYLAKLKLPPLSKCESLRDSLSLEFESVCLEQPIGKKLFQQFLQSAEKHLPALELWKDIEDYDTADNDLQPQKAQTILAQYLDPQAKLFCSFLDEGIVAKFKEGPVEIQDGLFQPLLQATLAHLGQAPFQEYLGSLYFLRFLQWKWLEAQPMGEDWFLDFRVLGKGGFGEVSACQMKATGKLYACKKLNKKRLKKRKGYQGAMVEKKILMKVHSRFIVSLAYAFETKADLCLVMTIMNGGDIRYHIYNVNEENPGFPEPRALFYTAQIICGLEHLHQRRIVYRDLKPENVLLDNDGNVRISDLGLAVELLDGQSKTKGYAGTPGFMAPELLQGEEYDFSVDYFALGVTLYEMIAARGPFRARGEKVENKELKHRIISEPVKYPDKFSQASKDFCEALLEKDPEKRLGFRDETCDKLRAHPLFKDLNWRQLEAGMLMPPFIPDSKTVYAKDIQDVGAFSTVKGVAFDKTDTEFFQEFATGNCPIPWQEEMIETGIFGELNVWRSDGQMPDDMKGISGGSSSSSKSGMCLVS
CAMKK2 (human), sequence (Q96RR4 whole entry, looked up): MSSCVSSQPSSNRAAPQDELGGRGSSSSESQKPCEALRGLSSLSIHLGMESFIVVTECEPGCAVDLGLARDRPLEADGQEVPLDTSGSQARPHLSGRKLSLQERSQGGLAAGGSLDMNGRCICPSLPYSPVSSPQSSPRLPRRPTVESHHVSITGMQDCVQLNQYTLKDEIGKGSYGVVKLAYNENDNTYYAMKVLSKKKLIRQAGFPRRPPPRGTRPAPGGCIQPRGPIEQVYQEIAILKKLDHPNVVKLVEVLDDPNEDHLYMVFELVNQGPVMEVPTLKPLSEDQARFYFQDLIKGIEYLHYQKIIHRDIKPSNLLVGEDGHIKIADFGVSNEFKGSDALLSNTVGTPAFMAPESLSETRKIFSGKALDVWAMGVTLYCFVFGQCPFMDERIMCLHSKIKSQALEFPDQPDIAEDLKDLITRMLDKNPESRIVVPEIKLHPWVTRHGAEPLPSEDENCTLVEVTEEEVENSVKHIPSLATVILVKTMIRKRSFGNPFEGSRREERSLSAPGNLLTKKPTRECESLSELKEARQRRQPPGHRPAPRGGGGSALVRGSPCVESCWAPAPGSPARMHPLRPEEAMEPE
CDKL3 (human), sequence (Q8IVW4 whole entry, looked up): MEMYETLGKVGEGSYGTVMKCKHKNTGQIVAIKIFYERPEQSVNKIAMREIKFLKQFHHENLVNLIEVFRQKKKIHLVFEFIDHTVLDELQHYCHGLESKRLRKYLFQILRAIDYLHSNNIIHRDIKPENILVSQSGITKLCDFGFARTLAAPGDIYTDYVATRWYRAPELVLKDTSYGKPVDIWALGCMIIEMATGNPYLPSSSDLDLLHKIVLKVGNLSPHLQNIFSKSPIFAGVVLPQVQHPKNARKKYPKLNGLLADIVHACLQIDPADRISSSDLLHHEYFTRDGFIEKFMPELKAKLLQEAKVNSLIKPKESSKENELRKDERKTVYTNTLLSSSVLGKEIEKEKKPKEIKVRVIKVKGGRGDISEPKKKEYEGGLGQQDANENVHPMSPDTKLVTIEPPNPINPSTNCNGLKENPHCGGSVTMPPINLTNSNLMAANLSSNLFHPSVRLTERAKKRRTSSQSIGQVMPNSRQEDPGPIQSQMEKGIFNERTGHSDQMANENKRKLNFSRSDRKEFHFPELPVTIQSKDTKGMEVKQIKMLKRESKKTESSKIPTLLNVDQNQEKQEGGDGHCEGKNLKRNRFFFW
EPHA8 (human), sequence (P29322 whole entry, looked up): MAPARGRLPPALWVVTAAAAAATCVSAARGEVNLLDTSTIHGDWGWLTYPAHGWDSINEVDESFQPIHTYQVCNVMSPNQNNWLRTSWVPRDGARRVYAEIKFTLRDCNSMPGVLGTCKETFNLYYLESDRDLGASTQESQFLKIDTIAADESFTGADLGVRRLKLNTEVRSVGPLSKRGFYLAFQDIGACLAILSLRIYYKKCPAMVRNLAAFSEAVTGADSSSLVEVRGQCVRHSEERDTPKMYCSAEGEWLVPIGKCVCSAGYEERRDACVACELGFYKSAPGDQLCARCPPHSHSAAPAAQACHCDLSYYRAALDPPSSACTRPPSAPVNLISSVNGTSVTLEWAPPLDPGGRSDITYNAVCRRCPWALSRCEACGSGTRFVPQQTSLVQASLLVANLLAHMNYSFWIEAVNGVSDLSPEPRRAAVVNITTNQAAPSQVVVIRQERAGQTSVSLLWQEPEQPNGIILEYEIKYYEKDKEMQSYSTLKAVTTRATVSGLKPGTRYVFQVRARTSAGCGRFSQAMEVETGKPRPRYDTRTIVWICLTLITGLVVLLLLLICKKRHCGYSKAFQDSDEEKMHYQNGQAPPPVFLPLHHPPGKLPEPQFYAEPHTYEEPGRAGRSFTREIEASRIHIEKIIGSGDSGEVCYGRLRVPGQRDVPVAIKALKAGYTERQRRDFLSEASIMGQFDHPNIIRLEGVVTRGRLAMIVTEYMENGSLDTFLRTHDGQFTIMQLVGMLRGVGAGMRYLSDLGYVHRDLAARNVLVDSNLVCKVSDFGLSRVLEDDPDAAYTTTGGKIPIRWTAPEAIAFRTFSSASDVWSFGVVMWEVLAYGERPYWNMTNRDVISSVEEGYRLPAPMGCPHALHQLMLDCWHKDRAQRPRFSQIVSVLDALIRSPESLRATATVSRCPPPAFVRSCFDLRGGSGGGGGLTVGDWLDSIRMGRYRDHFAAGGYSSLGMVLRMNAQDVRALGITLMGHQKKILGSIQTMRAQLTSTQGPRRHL
GAK (human), sequence (O14976 whole entry, looked up): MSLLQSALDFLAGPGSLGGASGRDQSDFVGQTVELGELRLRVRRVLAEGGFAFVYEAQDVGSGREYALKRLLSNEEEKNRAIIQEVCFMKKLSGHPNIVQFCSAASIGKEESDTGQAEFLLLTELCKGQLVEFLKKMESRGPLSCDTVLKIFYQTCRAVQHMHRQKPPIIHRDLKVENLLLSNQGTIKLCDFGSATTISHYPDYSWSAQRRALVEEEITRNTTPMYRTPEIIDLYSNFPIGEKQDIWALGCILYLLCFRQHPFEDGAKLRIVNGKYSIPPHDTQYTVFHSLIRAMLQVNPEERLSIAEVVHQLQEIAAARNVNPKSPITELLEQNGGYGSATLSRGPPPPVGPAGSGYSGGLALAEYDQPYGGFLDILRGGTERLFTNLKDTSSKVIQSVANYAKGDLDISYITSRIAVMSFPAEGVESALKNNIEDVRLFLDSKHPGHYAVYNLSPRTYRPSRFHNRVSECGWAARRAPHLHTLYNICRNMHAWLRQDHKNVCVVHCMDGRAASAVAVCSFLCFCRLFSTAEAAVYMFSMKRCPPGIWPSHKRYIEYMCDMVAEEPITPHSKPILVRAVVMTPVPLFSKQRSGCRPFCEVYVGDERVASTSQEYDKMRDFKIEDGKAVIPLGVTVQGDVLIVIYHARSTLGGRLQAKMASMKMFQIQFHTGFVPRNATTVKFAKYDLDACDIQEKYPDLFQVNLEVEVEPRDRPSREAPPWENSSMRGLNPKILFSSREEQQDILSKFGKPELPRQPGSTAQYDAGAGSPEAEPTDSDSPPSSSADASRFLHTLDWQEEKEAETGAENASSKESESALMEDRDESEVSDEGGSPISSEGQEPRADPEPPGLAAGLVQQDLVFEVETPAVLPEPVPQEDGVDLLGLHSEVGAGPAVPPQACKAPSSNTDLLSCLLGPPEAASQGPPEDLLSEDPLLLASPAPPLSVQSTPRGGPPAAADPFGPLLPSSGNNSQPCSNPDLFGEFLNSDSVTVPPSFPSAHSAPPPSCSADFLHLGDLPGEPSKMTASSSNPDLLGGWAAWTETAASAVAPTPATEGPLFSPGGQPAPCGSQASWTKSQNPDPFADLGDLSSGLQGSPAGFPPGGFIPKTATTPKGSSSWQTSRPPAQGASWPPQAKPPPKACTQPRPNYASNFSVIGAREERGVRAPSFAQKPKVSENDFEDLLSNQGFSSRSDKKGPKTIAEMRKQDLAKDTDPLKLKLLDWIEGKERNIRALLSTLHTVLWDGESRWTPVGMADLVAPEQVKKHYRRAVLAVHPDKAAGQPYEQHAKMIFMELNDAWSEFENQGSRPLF
CRK2 (P.falciparum), sequence (P61075 whole entry, looked up): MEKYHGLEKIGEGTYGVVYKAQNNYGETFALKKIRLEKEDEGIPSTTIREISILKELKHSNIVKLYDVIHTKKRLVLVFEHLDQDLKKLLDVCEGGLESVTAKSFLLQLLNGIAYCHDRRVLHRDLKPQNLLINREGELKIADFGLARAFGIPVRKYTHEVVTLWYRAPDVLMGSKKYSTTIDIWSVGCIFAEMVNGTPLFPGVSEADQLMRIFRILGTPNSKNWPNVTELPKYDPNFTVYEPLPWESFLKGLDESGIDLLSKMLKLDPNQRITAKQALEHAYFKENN

COc1cc(C(=O)N2CCC(N3CCN(C)CC3)CC2)ccc1Nc1ncc2c(n1)N(C)c1ccccc1C(=O)N2C
kinase still bound, per cent of control (AAK1 (human)): 84%
kinase still bound, per cent of control [1]: 94%
kinase still bound, per cent of control (BMPR1A (human)): 100%
kinase still bound, per cent of control [2]: 100%
kinase still bound, per cent of control (CAMKK2 (human)): 31%
residual activity (CDKL3 (human)): 83%
kinase still bound, per cent of control (CRK2 (P.falciparum)): 100%
kinase still bound, per cent of control (CSNK2A1 (human)): 100%
kinase still bound, per cent of control (DDR1 (human)): 100%
kinase still bound, per cent of control (DDR2 (human)): 100%
kinase still bound, per cent of control (DYRK2 (human)): 76%
kinase still bound, per cent of control [3]: 78%
kinase still bound, per cent of control (EPHA8 (human)): 80%
kinase still bound, per cent of control (EPHB4 (human)): 100%
kinase still bound, per cent of control (ERN1 (human)): 59%
kinase still bound, per cent of control [4]: 85%
kinase still bound, per cent of control (FLT3 (human)): 100%
kinase still bound, per cent of control (GAK (human)): 16%
kinase still bound, per cent of control (GRK1 (human)): 91%
kinase still bound, per cent of control (GSK3B (human)): 88%
kinase still bound, per cent of control (HIPK1 (human)): 100%
kinase still bound, per cent of control (HIPK2 (human)): 88%
kinase still bound, per cent of control (IRAK1 (human)): 100%
kinase still bound, per cent of control (MAP2K1 (human)): 100%
kinase still bound, per cent of control (MAPK7 (human)): 0.05%
kinase still bound, per cent of control (MAPKAPK5 (human)): 97%
kinase still bound, per cent of control (MARK2 (human)): 100%
kinase still bound, per cent of control (NEK4 (human)): 95%
kinase still bound, per cent of control (NEK5 (human)): 100%
kinase still bound, per cent of control (PAK6 (human)): 98%
kinase still bound, per cent of control (PDGFRB (human)): 100%
kinase still bound, per cent of control (PHKG1 (human)): 54%
kinase still bound, per cent of control [5]: 77%
kinase still bound, per cent of control [6]: 65%
kinase still bound, per cent of control (PIM1 (human)): 100%
kinase still bound, per cent of control (PIM3 (human)): 88%
kinase still bound, per cent of control (PIP5K1A (human)): 90%
kinase still bound, per cent of control (PRKCQ (human)): 100%
kinase still bound, per cent of control (TEK (human)): 100%
kinase still bound, per cent of control (TLK2 (human)): 99%
Kd (TNK1 (human)): 23 nM
kinase still bound, per cent of control (TNK1 (human); compound 10.0 µM): 2.8%
